Source: ChEMBL document CHEMBL1131542, “A potent dipeptide inhibitor of dipeptidyl peptidase IV” (Bioorg Med Chem Lett, 1998)
Square brackets hold non-standard residues; d marks the D form. Peptide text beside a SMILES is read from it. Tic = O=C(O)[C@@H]1Cc2ccccc2CN1

Key:
Dipeptidyl peptidase 4 [1] = molecular target: T1, Dipeptidyl peptidase 4 (Homo sapiens, UniProt P27487); assay: Percent inhibition against Dipeptidylpeptidase IV (DPP IV) at a concentration of 10 uM
Target sequence in this assay (P27487 whole entry, looked up): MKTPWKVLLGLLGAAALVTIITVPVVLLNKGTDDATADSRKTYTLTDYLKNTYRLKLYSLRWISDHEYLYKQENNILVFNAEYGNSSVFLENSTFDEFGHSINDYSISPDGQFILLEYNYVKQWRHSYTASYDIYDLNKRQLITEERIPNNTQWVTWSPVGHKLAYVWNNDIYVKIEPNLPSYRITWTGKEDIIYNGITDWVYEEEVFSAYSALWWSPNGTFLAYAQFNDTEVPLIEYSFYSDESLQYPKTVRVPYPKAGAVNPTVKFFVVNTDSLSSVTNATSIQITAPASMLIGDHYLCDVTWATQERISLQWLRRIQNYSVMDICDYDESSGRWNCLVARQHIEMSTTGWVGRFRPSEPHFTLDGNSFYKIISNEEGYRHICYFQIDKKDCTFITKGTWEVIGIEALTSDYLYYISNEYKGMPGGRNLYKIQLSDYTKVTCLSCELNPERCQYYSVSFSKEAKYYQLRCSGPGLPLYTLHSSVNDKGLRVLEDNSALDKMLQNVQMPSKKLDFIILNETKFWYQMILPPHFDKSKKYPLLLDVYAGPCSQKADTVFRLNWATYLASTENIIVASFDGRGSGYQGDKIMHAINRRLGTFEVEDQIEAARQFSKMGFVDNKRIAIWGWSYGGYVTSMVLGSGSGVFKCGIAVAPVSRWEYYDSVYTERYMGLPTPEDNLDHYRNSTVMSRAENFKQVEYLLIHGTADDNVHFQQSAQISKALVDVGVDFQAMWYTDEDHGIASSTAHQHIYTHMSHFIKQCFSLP

Dipeptidyl peptidase 4 [2] = molecular target: T1, Dipeptidyl peptidase 4; assay: Inhibitory concentration against Dipeptidyl peptidase IV (DPP IV)
Target sequence in this assay (P27487 whole entry): as the sequence (P27487 whole entry, looked up) above

Dipeptidyl peptidase 4 [3] = molecular target: T1, Dipeptidyl peptidase 4; assay: Percent inhibition of Dipeptidyl peptidase IV (DPP IV) at a concentration of 10 uM
Target sequence in this assay (P27487 whole entry, looked up): as above

Dipeptidyl peptidase 4 [4] = molecular target: T1, Dipeptidyl peptidase 4; assay: Percent inhibition against Dipeptidyl peptidase IV (DPP IV) at a concentration of 1 uM
Target sequence in this assay (P27487 whole entry, looked up): as above

Compound	inhibition (Dipeptidyl peptidase 4 [1]) [%]	IC50 (Dipeptidyl peptidase 4 [2]) [µM]	inhibition (Dipeptidyl peptidase 4 [3]) [%]	inhibition (Dipeptidyl peptidase 4 [4]) [%]
COc1c(O)cc2c(c1O)CN(C(=O)[C@@H](N)Cc1c[nH]c3ccccc13)[C@H](C(=O)N[C@@H](CC(CO)CO)C(=O)O)C2	7.7			
N[C@@H](Cc1c[nH]c2ccccc12)C(=O)N1Cc2ccccc2C[C@H]1C(=O)O (H-Trp-[Tic]-OH)		5.7	59	
N[C@@H](Cc1c[nH]c2ccccc12)C(=O)N1Cc2ccccc2C[C@H]1C(=O)N[C@@H](CO)C(=O)O (H-Trp-[Tic]-Ser-OH)		7.9	53	

The next lines start with the values.

inhibition (Dipeptidyl peptidase 4 [1]) [%]	IC50 (Dipeptidyl peptidase 4 [2]) [µM]	inhibition (Dipeptidyl peptidase 4 [3]) [%]	inhibition (Dipeptidyl peptidase 4 [4]) [%]	Compound
	7	62		N[C@@H](Cc1c[nH]c2ccccc12)C(=O)N1Cc2ccccc2C[C@H]1C(=O)N[C@@H](CCC(=O)O)C(=O)O (H-Trp-[Tic]-Glu-OH)
			61	CC[C@H](C)[C@H](NC(=O)[C@H](Cc1c[nH]cn1)NC(=O)CNC(=O)[C@H](CCC(=O)O)NC(=O)[C@H](CCC(N)=O)NC(=O)[C@H](CC(=O)O)NC(=O)[C@H](CC(N)=O)NC(=O)[C@H](CCCN=C(N)N)NC(=O)[C@H](C)NC(=O)[C@@H]1Cc2ccccc2CN1C(=O)[C@@H](N)Cc1c[nH]c2ccccc12)C(=O)N[C@@H](CC(C)C)C(=O)N[C@@H](CCCCN)C(=O)N[C@@H](CCSC)C(=O)N[C@@H](Cc1ccccc1)C(=O)N1CCC[C@H]1C(=O)N[C@@H](CO)C(=O)N[C@H](C(=O)N[C@@H](Cc1c[nH]c2ccccc12)C(=O)N[C@@H](Cc1ccc(O)cc1)C(=O)N[C@H](C(=O)O)C(C)C)[C@@H](C)O (H-W[Tic]ARNDQEGHILKMFPSTWYV-OH)
			12	CC[C@H](C)[C@H](NC(=O)[C@H](Cc1c[nH]cn1)NC(=O)CNC(=O)[C@H](CCC(=O)O)NC(=O)[C@H](CCC(N)=O)NC(=O)[C@H](CC(=O)O)NC(=O)[C@H](CC(N)=O)NC(=O)[C@H](CCCN=C(N)N)NC(=O)[C@H](C)NC(=O)[C@@H]1Cc2ccccc2CN1C(=O)[C@@H](N)Cc1ccc(O)cc1)C(=O)N[C@@H](CC(C)C)C(=O)N[C@@H](CCCCN)C(=O)N[C@@H](CCSC)C(=O)N[C@@H](Cc1ccccc1)C(=O)N1CCC[C@H]1C(=O)N[C@@H](CO)C(=O)N[C@H](C(=O)N[C@@H](Cc1c[nH]c2ccccc12)C(=O)N[C@@H](Cc1ccc(O)cc1)C(=O)N[C@H](C(=O)O)C(C)C)[C@@H](C)O (H-Y[Tic]ARNDQEGHILKMFPSTWYV-OH)
